Consider 1 molecule from patent US9198915B2, “Methods involving aldose reductase inhibitors” (The Board of Regents of The University of Texas System, priority 2007, dated 2015).

The structures appear in SMILES notation.

One test relates to NF-κB. The test is described as follows: NF-κB-dependent SEAP reporter assay in RW-treated SAEC. The class given is cell-based, human. On the procedure:
The SAEC (1×10^5 cells/well) were plated in 24-well plates, serum-starved in SABM for 24 hours with or without AR inhibitors, sorbinil and zopolrestat (20 μM), and transiently transfected with pNF-κB-secretory alkaline phosphatase (SEAP) construct or control plasmid pTAL-SEAP DNA (Clontech, Palo Alto, Calif.) using the LipofectAMINE Plus reagent. After 6 hours of transfection, medium was replaced with fresh medium and cells were treated with RW (50 μg/mL) for 48 hours. The cell culture medium was harvested, centrifuged and supernatant was analyzed for SEAP activity, essentially as described by the manufacturer (Clontech, Palo Alto, Calif.), using a 96-well chemiluminescence plate reader.
In general terms: A reporter such as luciferase makes a cellular process visible.

A further test concerns SAEC. The test is described as follows: TNF-α- and LPS-induced ROS generation in SAEC (DHE). In kind it is cell-based, human. The settings on record: TNF-α 2 nM or LPS 1 μg/mL, 16 h. On the procedure: Dihydroethidium (DHE, Molecular Probes) staining for superoxide was carried out as described previously. Briefly, approximately 1×10^5 cells were seeded on chambered slides and starved in serum-free basal medium with AR inhibitor or carrier for 24 h. The cells were treated with TNF-α (2 nM) or LPS (1 μg/mL) or carrier for an additional 16 h. SAEC were rinsed with cold PBS and incubated in PBS containing HEt (2.5 μmol/L) at 37° C. for 15 min. Cells were rinsed in PBS and mounted with fluorsave mounting medium containing DAPI (Vector Laboratories Inc., Burlingame, Calif.). The image of ethidium staining was measured with a Nikon epifluorescence microscope with a 585 nm long-pass filter.

By inhibition is commonly meant the relative decrease from the control value, in per cent. As for `O=C(O)Cc1nn(Cc2nc3cc(C(F)(F)F)ccc3s2)c(=O)c2ccccc12` [zopolrestat], the inhibition at 20 µM in the test with NF-κB (Homo sapiens, SAEC, AR inhibitor 20 μM, RW 50 μg/mL 48 hours, read-out: inhibition of RW-induced NF-κB-dependent SEAP activation) was greater than 60%. Also, the “NF-κB-SEAP activity, compound alone” value in the test on NF-κB (no RW) was “did not affect”. For the same molecule, in the test with SAEC, the “TNF-α- and LPS-induced increase in ROS levels” value is recorded as “prevented these changes”.
